Assays:
[1] = target: T1, recombinant human ALK5 (TGF-βR1) protein (Homo sapiens, UniProt P36897); test: Biochemical ALK5 (TGF-βR1) assay to measure pKi (LANCE Ultra ULight kinase assay); details: apparent pKi, converted from pIC50 using the Cheng-Prusoff equation
T1 construct: purchased Life Technologies PR9075A
T1 sequence (P36897 34-503): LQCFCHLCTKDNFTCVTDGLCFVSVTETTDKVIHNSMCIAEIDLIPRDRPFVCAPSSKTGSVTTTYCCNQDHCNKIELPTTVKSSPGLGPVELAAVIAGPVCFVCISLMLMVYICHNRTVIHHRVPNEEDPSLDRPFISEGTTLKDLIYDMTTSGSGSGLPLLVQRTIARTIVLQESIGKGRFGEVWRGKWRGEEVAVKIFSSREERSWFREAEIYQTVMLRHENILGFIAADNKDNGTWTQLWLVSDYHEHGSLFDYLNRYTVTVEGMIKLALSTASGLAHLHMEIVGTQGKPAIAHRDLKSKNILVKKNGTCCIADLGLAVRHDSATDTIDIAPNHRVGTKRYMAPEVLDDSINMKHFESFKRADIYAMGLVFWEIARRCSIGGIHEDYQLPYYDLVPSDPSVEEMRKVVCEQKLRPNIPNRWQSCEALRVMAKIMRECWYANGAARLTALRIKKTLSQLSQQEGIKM
In short: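 TR-FRET kinase format: compound dose range 10 μM–25 pM equilibrated 60 min with human ALK5 and ULight-labelled topoisomerase 2α peptide in HEPES/MgCl2 buffer pH 7.5 with DTT. Reaction started with ATP (125 μM stock, 5× final), 60 min at 37° C, stopped with EDTA/Eu-anti-phospho antibody; pKi derived from pIC50 via Cheng-Prusoff.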

[2] = system: TGF-β-stimulated SMAD3 phosphorylation in BEAS-2B cells; test: Cellular ALK5 potency assay, inhibition of TGF-β stimulated pSMAD3 formation in BEAS-2B cells; assay type: cell-based; details: Homo sapiens, inhibition of TGF-β (10 ng/mL) stimulated pSMAD3 formation, 1 hour compound incubation, read-out: BEAS2B pIC50 (converted)
In short: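 Phospho-SMAD3 was quantified by AlphaLISA in lysates of human lung epithelial BEAS-2B cells. Compound was added 1 h (37 °C, HEPES/BSA-supplemented HBSS) before a 30 min challenge with 10 ng/mL TGF-β. Values are pIC50 relative to stimulated cells without compound.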

| Ki [1] | SMILES | IC50 [2] |
| --- | --- | --- |
| ≤ 0.0316 nM | CN(C)C1CC=C(c2cnc3ccc(-c4c[nH]nc4-c4cc(Cl)ccc4F)nc3c2)CC1 (stereo not shown) [Compound 1-96, 4-(6-(3-(5-chloro-2-fluorophenyl)-1H-pyrazol-4-yl)-1,5-naphthyridin-3-yl)-N,N-dimethylcyclohex-3-en-1-amine] | ≤ 20 nM |
| 0.398 to 3.16 nM | CNCCn1cc(-c2cnc3ccc(-c4c(-c5cc(Cl)ccc5F)[nH]c5cccnc45)nc3c2)cn1 [Compound 25-2, 2-[4-[6-[2-(5-chloro-2-fluoro-phenyl)-1H-pyrrolo[3,2-b]pyridin-3-yl]-1,5-naphthyridin-3-yl]pyrazol-1-yl]-N-methyl-ethanamine] | 200 to 1260 nM |
| 0.0398 to 0.316 nM | Fc1ccc(Cl)cc1-c1[nH]cnc1-c1ccc2ncc(-c3cnc4n3CCNC4)cc2n1 [Compound 2-24, 2-[5-(5-chloro-2-fluoro-phenyl)-1H-imidazol-4-yl]-7-(5,6,7,8-tetrahydroimidazo[1,2-a]pyrazin-3-yl)-1,5-naphthyridine] | 25.1 to 158 nM |
| 0.398 to 3.16 nM | Fc1cc(F)c(-c2n[nH]cc2-c2ccc3ncccc3n2)cc1Cl [Compound 6-71, 2-[3-(5-chloro-2,4-difluoro-phenyl)-1H-pyrazol-4-yl]-1,5-naphthyridine] | 25.1 to 158 nM |
| 0.398 to 3.16 nM | Fc1ccc(Cl)cc1-c1n[nH]cc1-c1ccc2ncc(N3CCCNCC3)cc2n1 [Compound 1-63, 2-[3-(5-chloro-2-fluoro-phenyl)-1H-pyrazol-4-yl]-7-(1,4-diazepan-1-yl)-1,5-naphthyridine] | 25.1 to 158 nM |
| 0.398 to 3.16 nM | CN(C)C(=O)[C@H]1CN(c2cnc3ccc(-c4c[nH]nc4-c4cc(Cl)ccc4F)nc3c2)CCN1 [Compound 1-61, (2R)-4-[6-[3-(5-chloro-2-fluoro-phenyl)-1H-pyrazol-4-yl]-1,5-naphthyridin-3-yl]-N,N-dimethyl-piperazine-2-carboxamide] | 25.1 to 158 nM |
| ≤ 0.0316 nM | CCOC(=O)CNCCn1cc(-c2cnc3ccc(-c4c[nH]nc4-c4cc(Cl)ccc4F)nc3c2)cn1 [Compound 1-127, ethyl 2-[2-[4-[6-[3-(5-chloro-2-fluoro-phenyl)-1H-pyrazol-4-yl]-1,5-naphthyridin-3-yl]pyrazol-1-yl]ethylamino]acetate] | 200 to 1260 nM |
| 0.0398 to 0.316 nM | CN1CCC(N(C)c2cnc3ccc(-c4c[nH]nc4-c4cc(Cl)ccc4F)nc3c2)C1 (racemic) [Compound 1-79, 6-[3-(5-chloro-2-fluoro-phenyl)-1H-pyrazol-4-yl]-N-methyl-N-[rac-(3R)-1-methylpyrrolidin-3-yl]-1,5-naphthyridin-3-amine] | ≤ 20 nM |
| 0.398 to 3.16 nM | CN1CC2CN(c3cnc4ccc(-c5c[nH]nc5-c5cc(Cl)ccc5F)nc4c3)CC21 (stereo not shown) [Compound 1-74, 2-[3-(5-chloro-2-fluoro-phenyl)-1H-pyrazol-4-yl]-7-(6-methyl-3,6-diazabicyclo[3.2.0]heptan-3-yl)-1,5-naphthyridine] | 25.1 to 158 nM |
| 3.98 to 31.6 nM | NC1CCC(c2cnc3ccc(-c4c[nH]nc4-c4cc(Cl)ccc4F)nc3c2)CC1 (stereo not shown) [Compound 1-98, 4-(6-(3-(5-chloro-2-fluorophenyl)-1H-pyrazol-4-yl)-1,5-naphthyridin-3-yl)cyclohexan-1-amine] | 200 to 1260 nM |
| ≤ 0.0316 nM | Fc1ccc(Cl)cc1-c1n[nH]cc1-c1ccc2ncc(-c3cnn4c3CNCC4)cc2n1 [Compound 1-108, 2-[3-(5-chloro-2-fluoro-phenyl)-1H-pyrazol-4-yl]-7-(4,5,6,7-tetrahydropyrazolo[1,5-a]pyrazin-3-yl)-1,5-naphthyridine] | ≤ 20 nM |
| 3.98 to 31.6 nM | OCCN1CCN(c2cnc3ccc(-c4c[nH]nc4-c4ccc(F)c(F)c4)nc3c2)CC1 [Compound 8-8, 2-[4-[6-[3-(3,4-difluorophenyl)-1H-pyrazol-4-yl]-1,5-naphthyridin-3-yl]piperazin-1-yl]ethanol] | 25.1 to 158 nM |
| 0.0398 to 0.316 nM | CN1CCN(c2ccc(Nc3cnc4ccc(-c5nc[nH]c5-c5cc(Cl)ccc5F)nc4c3)nc2)CC1 [Compound 2-1, 6-(5-(5-chloro-2-fluorophenyl)-1H-imidazol-4-yl)-N-(5-(4-methylpiperazin-1-yl)pyridin-2-yl)-1,5-naphthyridin-3-amine] | 25.1 to 158 nM |
| 0.0398 to 0.316 nM | Fc1ccc(Cl)cc1-c1[nH]cnc1-c1ccc2ncc(-c3cnn4c3CNCC4)cc2n1 [Compound 2-22, 2-[5-(5-chloro-2-fluoro-phenyl)-1H-imidazol-4-yl]-7-(4,5,6,7-tetrahydropyrazolo[1,5-a]pyrazin-3-yl)-1,5-naphthyridine] | 25.1 to 158 nM |
| 0.398 to 3.16 nM | Fc1ccc(-c2n[nH]cc2-c2ccc3ncc(-c4cn[nH]c4)cc3n2)cc1F [Compound 8-13, 2-[3-(3,4-difluorophenyl)-1H-pyrazol-4-yl]-7-(1H-pyrazol-4-yl)-1,5-naphthyridine] | ≤ 20 nM |
| 0.0398 to 0.316 nM | Fc1ccc(Cl)cc1-c1[nH]cnc1-c1ccc2ncc(-c3nnn4c3CNCC4)cc2n1 [Compound 2-23, 2-[5-(5-chloro-2-fluoro-phenyl)-1H-imidazol-4-yl]-7-(4,5,6,7-tetrahydrotriazolo[1,5-a]pyrazin-3-yl)-1,5-naphthyridine] | 25.1 to 158 nM |
| 0.398 to 3.16 nM | Fc1cc(F)c(-c2n[nH]cc2-c2ccc3ncc(-c4cnc5n4CCCN5)cc3n2)cc1Cl [Compound 6-60, 2-[3-(5-chloro-2,4-difluoro-phenyl)-1H-pyrazol-4-yl]-7-(5,6,7,8-tetrahydroimidazo[1,2-a]pyrimidin-3-yl)-1,5-naphthyridine] | 25.1 to 158 nM |
| 0.0398 to 0.316 nM | CN1CCN(C2CCN(c3cnc4ccc(-c5c(-c6cc(Cl)ccc6F)nc6ccccn56)cc4c3)CC2)CC1 [Compound 19-5, 6-[2-(5-chloro-2-fluoro-phenyl)imidazo[1,2-a]pyridin-3-yl]-3-[4-(4-methylpiperazin-1-yl)-1-piperidyl]quinoline] | 200 to 1260 nM |
| 0.398 to 3.16 nM | Fc1ccc(Cl)cc1-c1n[nH]cc1-c1ccc2ncc(NC3CCCNC3)cc2n1 (stereo not shown) [Compound 1-25, 6-[3-(5-chloro-2-fluoro-phenyl)-1H-pyrazol-4-yl]-N-(3-piperidyl)-1,5-naphthyridin-3-amine] | 25.1 to 158 nM |
| 0.0398 to 0.316 nM | Fc1cc(F)c(-c2n[nH]cc2-c2ccc3ncc(NC4CCNCC4)cc3n2)cc1Cl [Compound 6-10, 6-[3-(5-chloro-2,4-difluoro-phenyl)-1H-pyrazol-4-yl]-N-(4-piperidyl)-1,5-naphthyridin-3-amine] | 200 to 1260 nM |
| 0.0398 to 0.316 nM | Fc1ccc(Cl)cc1-c1[nH]cnc1-c1ccc2ncc(-c3nc4n(n3)CCNC4)cc2n1 [Compound 2-25, 2-[5-(5-chloro-2-fluoro-phenyl)-1H-imidazol-4-yl]-7-(5,6,7,8-tetrahydro-[1,2,4]triazolo[1,5-a]pyrazin-2-yl)-1,5-naphthyridine] | 25.1 to 158 nM |
| 0.0398 to 0.316 nM | CCN1CCN(CCNc2cnc3ccc(-c4c[nH]nc4-c4cc(Cl)ccc4F)nc3c2)CC1 [Compound 1-11, 6-[3-(5-chloro-2-fluoro-phenyl)-1H-pyrazol-4-yl]-N-[2-(4-ethylpiperazin-1-yl)ethyl]-1,5-naphthyridin-3-amine] | ≤ 20 nM |

| SMILES | Ki [1] | IC50 [2] |
| --- | --- | --- |
| CCN1CCC(N(C)c2cnc3ccc(-c4c[nH]nc4-c4cc(Cl)ccc4F)nc3c2)CC1 [Compound 1-38, 6-[3-(5-chloro-2-fluoro-phenyl)-1H-pyrazol-4-yl]-N-(1-ethyl-4-piperidyl)-N-methyl-1,5-naphthyridin-3-amine] | 0.398 to 3.16 nM | 25.1 to 158 nM |
